Article PMC4205912, “Sea foam as a source of fungal inoculum for the isolation of biologically active natural products” (Mycology, 2014)
Converted amounts (≈) assume the structure as drawn. Read-outs that look alike come from different tables or passages of the source.

Columns and labels:
MRSA ATCC 33591 = test: microbroth antibiotic susceptibility testing, MRSA; assay type: cell-based, methicillin-resistant Staphylococcus aureus; conditions: Staphylococcus aureus; for IC50: read-out: MRSA IC50; for MIC: read-out: MRSA MIC
Procedure: (§1) All microbroth antibiotic susceptibility testing was carried out in triplicate in 96-well plates in accordance with Clinical Laboratory Standards Institute testing standards (NCCLS, [2003]) using the following pathogens: MRSA ATCC 33591 (MRSA), S. warneri ATCC 17917, VRE EF379 (VRE), Pseudomonas aeruginosa ATCC 14210, Proteus vulgaris ATCC 12454, and Candida albicans ATCC 14035. Extract fractions were assayed at 250 µg/mL while pure compounds were serially diluted to generate a range of 12 concentrations (128–0.0625 µg/mL) in a final well volume concentration of 2% DMSO(aq). […] The optical density of the plate was recorded using a Thermo Scientific Varioskan Flash plate reader at 600 nm at time zero and then again after incubation of the plates for 22 h at 37°C. After subtracting the time zero OD600 from the final reading, the percentages of microorganism survival relative to vehicle control wells were calculated.

S. warneri ATCC 17917 = test: microbroth antibiotic susceptibility testing, S. warneri; assay type: cell-based; conditions: Staphylococcus warneri; for IC50: read-out: S. warneri IC50; for MIC: read-out: S. warneri MIC
Procedure: as §1

VRE EF379 = test: microbroth antibiotic susceptibility testing, VRE; assay type: cell-based, vancomycin-resistant Enterococcus faecium; conditions: Enterococcus, VRE; for IC50: read-out: VRE IC50; for MIC: read-out: VRE MIC
Procedure: as §1

[1] = tested on: Proteus vulgaris ATCC 12454; test: microbroth antibiotic susceptibility testing, P. vulgaris; assay type: cell-based; conditions: Proteus vulgaris, ATCC12454; triplicate, averaged; 22 h at 37°C
Procedure: as §1, with “14035.” for “14035. Extract fractions were assayed at 250 µg/mL while pure compounds were serially diluted to generate a range of 12 concentrations (128–0.0625 µg/mL) in a final well volume concentration of 2% DMSO(aq).”

[2] = tested on: Pseudomonas aeruginosa ATCC 14210; test: microbroth antibiotic susceptibility testing, P. aeruginosa; assay type: cell-based; conditions: Pseudomonas aeruginosa, ATCC14210; triplicate, averaged; 22 h at 37°C
Procedure: as §1

[3] = tested on: Candida albicans ATCC 14035; test: microbroth susceptibility testing, C. albicans; assay type: cell-based; conditions: for IC50 / MIC: Candida albicans, ATCC14035
Procedure: as §1

[4] = tested on: adult human epidermal keratinocytes (HEKa); test: cytotoxicity assay (Alamar blue), keratinocytes; assay type: cell-based; conditions: Homo sapiens; HeKa cells, 24 h; read-out: Keratinocyte IC50
Procedure: (§2) Human foreskin BJ fibroblast cells (ATCC CRL-2522), adult human epidermal keratinocytes (HEKa), and human breast adenocarcinoma cells (ATCC HTB-26) were grown to 80% confluency (growth conditions are provided in Supplementary Materials and Methods), the cells were counted, diluted, and plated into treated 96-well cell culture plates. The BJ fibroblast and HEKa cells were plated at a cell density of 10,000 cells per well and the HTB-26 cells were plated at cell density of 5000 cells per well in 90 µL of respective growth medium (without the addition of antibiotics) and incubated for 24 h to allow cells to adhere to the plates before treatment. Pure compounds were tested in triplicate in serial dilutions of eight concentrations ranging from 128 µg/mL to 1 µg/mL per well (final well volume of 100 µL, 1% DMSO per well). Each of the cell lines were incubated at 37°C in a humidified atmosphere of 5% CO2; the BJ fibroblast and HEKa cells for 24 h and the HTB-26 cells for 72 h. Each plate contained four uninoculated positive controls, four untreated negative controls, and one column containing a concentration range of zinc pyrithione or doxorubicin. Alamar blue was added, 24 h after the treatment, and fluorescence was monitored using a Thermo Scientific Varioskan Flash plate reader at 560/12 excitation, 590 nm emission both at time zero and 4 h after Alamar blue addition. The inferred percentage of cell viability relative to vehicle control wells were calculated after subtracting the time zero emission 590 nm measurement from the final reading and the IC50 was determined.

[5] = tested on: Human foreskin BJ fibroblast cells (ATCC CRL-2522); test: cytotoxicity assay (Alamar blue), fibroblasts; assay type: cell-based; conditions: for IC50: Homo sapiens, 24 h, read-out: Fibroblast IC50
Procedure: as §2

[6] = tested on: human breast adenocarcinoma cells (ATCC HTB-26); test: cytotoxicity assay (Alamar blue), HTB-26; assay type: cell-based; conditions: for IC50: Homo sapiens, HTB26, 72 h, read-out: HTB-26 IC50
Procedure: as §2

[7] = tested on: erythropoietin gene expression; parameters: method as in Cai et al. [1998]; conditions: at a concentration of 1–1.6 µM; ref Cai et al. [1998]; cited from earlier work
[8] = triplicate, averaged, 22 h at 37°C
[9] = ATCC17917, triplicate, averaged, 22 h at 37°C
[10] = HTB-26 breast cancer cells, 72 h
[11] = at a concentration of 128 μg/mL

Row | SMILES | IC50 (MRSA ATCC 33591; [8]) [µg/mL] | MIC (MRSA ATCC 33591; [8]) [µg/mL] | IC50 (S. warneri ATCC 17917; [9]) [µg/mL] | MIC (S. warneri ATCC 17917; [9]) [µg/mL] | IC50 (VRE EF379; [8]) [µg/mL] | MIC (VRE EF379; [8]) [µg/mL] | IC50 [1] [µg/mL] | MIC [1] [µg/mL] | IC50 [2] [µg/mL] | MIC [2] [µg/mL] | IC50 [3, 8] [µg/mL] | MIC [3, 8] [µg/mL] | IC50 [4] [µg/mL] | IC50 ([5]; BJ cells) [µg/mL] | HTB-26 MIC [6, 10] [µg/mL] | IC50 [6, 10] [µg/mL] | further results
1 | Cc1cc(CO)c2c(=O)c3c(O)cccc3oc2c1 [1-hydroxy-6-methyl-8-hydroxymethylxanthone] | > 128 | > 128 | > 128 | > 128 | > 128 | > 128 | > 128 | > 128 | > 128 | > 128 | > 128 | > 128 | 12 (≈ 46.8 µM) | 29 (≈ 113 µM) | 32 | 24 (≈ 93.7 µM) | –
2 | C/C1=C\C(C)(C)/C=C/C[C@@]2(C)Oc3cc(O)c(=O)cc(C)c3CC2C[C@@H](O)C1 (some centres unmarked) [Epolone B, epolone B] | 48 (≈ 125 µM) | 64 (≈ 166 µM) | – | – | 52 (≈ 135 µM) | > 64 | > 64 | > 64 | > 128 | > 128 | 43 (≈ 112 µM) | 64 (≈ 166 µM) | 50 (≈ 130 µM) | > 128 | – | – | effect against C. albicans [3]: inhibitory effect; induction of erythropoietin gene expression [7]: five-fold
3 | CN[C@H](CC(C)C)C(=O)N[C@H]1C(=O)N[C@@H](CC(N)=O)C(=O)N[C@H]2C(=O)N[C@H]3C(=O)N[C@H](C(=O)N[C@H](C(=O)O)c4cc(O)cc(O)c4-c4cc3ccc4O)[C@H](O)c3ccc(c(Cl)c3)Oc3cc2cc(c3O[C@@H]2O[C@H](CO)[C@@H](O)[C@H](O)[C@H]2O[C@H]2C[C@](C)(N)[C@H](O)[C@H](C)O2)Oc2ccc(cc2Cl)[C@H]1O [Vancomycin, vancomycin, reference compound] | – | – | – | – | – | – | – | – | – | – | – | – | – | – | – | – | IC50 (MRSA ATCC 33591; 22 h): 0.88 µg/mL (≈ 0.607 µM); MIC (MRSA ATCC 33591; 22 h): 1.6 µg/mL (≈ 1.1 µM); IC50 (S. warneri ATCC 17917; ATCC17917, 22 h): 0.75 µg/mL (≈ 0.518 µM); MIC (S. warneri ATCC 17917; ATCC17917, 22 h): 1 µg/mL (≈ 0.69 µM)
4 | Cc1cc(O)c2c(c1)C(=O)c1cccc(O)c1C2=O [Chrysophanol, chrysophanol] | > 128 | > 128 | > 128 | > 128 | > 128 | > 128 | > 128 | > 128 | > 128 | > 128 | > 128 | > 128 | > 64 | > 64 | >64 | > 64 | activity against fibroblast cell line [5, 11]: inactive; activity against HTB-26 cell line [6, 11]: inactive
5 | Cc1cc(=O)c(O)cc2c1C[C@H]1CC(C)(C)/C=C/C[C@@]3(C)Oc4cc(O)cc(C)c4C[C@@H]3C[C@H](O)[C@]1(C)O2 [Epolone A, epolone A] | 48 (≈ 92.2 µM) | 64 (≈ 123 µM) | 33 (≈ 63.4 µM) | 64 (≈ 123 µM) | 44 (≈ 84.5 µM) | > 64 | > 64 | > 64 | > 128 | > 128 | > 64 | > 64 | 13 (≈ 25 µM) | 14 (≈ 26.9 µM) | – | – | induction of erythropoietin gene expression [7]: five-fold
6 | CO[C@H]1/C=C/O[C@@]2(C)Oc3c(C)c(O)c4c(O)c(c(/C=N/N5CCN(C)CC5)c(O)c4c3C2=O)NC(=O)/C(C)=C\C=C\[C@H](C)[C@H](O)[C@@H](C)[C@@H](O)[C@@H](C)[C@H](OC(C)=O)[C@@H]1C [Rifampicin, rifampicin, reference compound] | – | – | – | – | 0.5 (≈ 0.608 µM) | 2 (≈ 2.43 µM) | – | – | – | – | – | – | – | – | – | – | –
7 | COc1cccc2c1C(=O)c1c(O)c3c(c(O)c1C2=O)C[C@@](O)(C(=O)CO)C[C@@H]3O[C@H]1C[C@H](N)[C@H](O)[C@H](C)O1 [Doxorubromycin, doxorubicin, reference compound] | – | – | – | – | – | – | – | – | – | – | – | – | – | – | >16 | 2.5 (≈ 4.6 µM) | –
8 | Cc1cc(O)c2c(c1)C(C1c3cccc(O)c3C(=O)c3c(O)cc(C)cc31)c1cccc(O)c1C2=O (centres unmarked) [Chrysophanol bianthrone, chrysophanol bianthrone] | > 128 | > 128 | > 128 | > 128 | 128 (≈ 268 µM) | > 128 | > 128 | > 128 | > 128 | > 128 | > 128 | > 128 | > 64 | > 64 | 64 | 5 (≈ 10.4 µM) | –
9 | COC1=C(Cl)C(C)(O)c2c(oc(=O)c3c(O)cc(OC)cc23)C1=O (centres unmarked) [TMC-264] | 14 (≈ 39.7 µM) | 64 (≈ 181 µM) | 23 (≈ 65.2 µM) | 64 (≈ 181 µM) | 100 (≈ 284 µM) | > 128 | > 128 | > 128 | > 128 | > 128 | > 128 | > 128 | 1 (≈ 2.84 µM) | 13 (≈ 36.9 µM) | 8 | 2.8 (≈ 7.94 µM) | –
10 | C[C@@H]1[C@H](O)[C@@H](C)/C=C/C=C/CC/C=C/C=C/C=C/C=C/C(O[C@H]2O[C@H](C)[C@@H](O)[C@H](N)[C@@H]2O)CC2O[C@](O)(CC(O)C(O)CCC(O)CC(O)CC(O)CC(=O)O[C@H]1C)CC(O)C2C(=O)O (some centres unmarked) [Nystatin, nystatin, reference compound] | – | – | – | – | – | – | – | – | – | – | – | – | – | – | – | – | C. albicans IC50 [3, 8]: 0.92 µg/mL; C. albicans MIC [3, 8]: 1.6 µg/mL
11 | C[C@H]1CCC/C=C/[C@@H]2C[C@H](O)C[C@H]2[C@H](O)/C=C/C(=O)O1 [Brefeldin A, brefeldin A] | > 128 | > 128 | > 128 | > 128 | > 128 | > 128 | > 128 | > 128 | > 128 | > 128 | 20 (≈ 71.3 µM) | 128 (≈ 457 µM) | 0.5 (≈ 1.78 µM) | > 64 | – | > 0.5 | effect against C. albicans [3]: antifungal effect
12 | CC(C)C12SSSSC3(C(=O)N1C)C1OC45C(=O)N(C)C(CO)C(=O)N4C4Nc6ccccc6C4(C5O)C14c1ccccc1NC4N3C2=O (centres unmarked) [Leptosin J, leptosin J] | – | – | 9 (≈ 12.1 µM) | 64 (≈ 86.4 µM) | – | – | > 128 | > 128 | > 128 | > 128 | > 128 | > 128 | > 0.5 | – | 0.5 | – | IC50 (MRSA ATCC 33591; 22 h): 0.7 µg/mL (≈ 0.945 µM); MIC (MRSA ATCC 33591; 22 h): 2 µg/mL (≈ 2.7 µM); IC50 (VRE EF379; 22 h): 128 µg/mL (≈ 173 µM); MIC (VRE EF379; 22 h): > 128 µg/mL; IC50 ([5]; BJ): 0.5 µg/mL (≈ 0.675 µM); IC50 [6]: > 0.5 µg/mL
